In PubChem BioAssay AID328 (DTP/NCI, 2004) one finds T/C data, which are given here for eleven molecules.

Where “and” joins values, the source holds several entries; their conditions need not be identical. Equal entries are not always repeated. Toxic doses and inconclusive results are not listed. Non-standard residues stand in square brackets, D forms with d. Residues, ends and D or L forms follow the SMILES beside them. ξ: configuration not given here. ξPhe(4-N(CH2CH2Cl)2) = NC(Cc1ccc(N(CCCl)CCCl)cc1)C(=O)O

The test system of this assay is BDF1 mice, P388 leukemia ip, median survival T/C. In words: NCI In Vivo Anticancer Drug Screen. Data for tumor model P388 Leukemia (intraperitoneal) in B6D2F1 (BDF1) mice. The conditions noted are these: endpoint: median survival time, higher = longer survival. The procedure, abridged:
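Compound-treated tumour-bearing mice were compared with vehicle-treated controls. Survival was recorded, and the value is the treated-group measurement divided by the control-group measurement (T/C).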

Where [1] appears, read: dose: 12.5 mg/kg/injection, schedule: Q01DX009 (ip), vehicle: Klucel (hydroxypropylcellulose) (HPC).
Setting [2] is: dose: 100.0 mg/kg/injection, schedule: Q04DX003 (ip), vehicle: Klucel (hydroxypropylcellulose) (HPC).
Where [3] appears, read: dose: 200.0 mg/kg/injection, schedule: Q04DX003 (ip), vehicle: Klucel (hydroxypropylcellulose) (HPC).
Setting [4] is: dose: 25.0 mg/kg/injection, schedule: Q04DX003 (ip), vehicle: saline.
Where [5] appears, read: dose: 25.0 mg/kg/injection, schedule: Q01DX009 (ip), vehicle: saline.
Setting [6] is: dose: 100.0 mg/kg/injection, schedule: Q04DX003 (ip), vehicle: saline.

Regarding `O/N=c1/ccn(O)c2ccccc12`, the T/C was 168 % of control (dose: 0.14 mg/kg/injection, schedule: Q01DX009 (ip), vehicle: saline); 116 % of control (dose: 0.19 mg/kg/injection, schedule: Q04DX003 (ip), vehicle: saline); 120 % of control (dose: 0.29 mg/kg/injection, schedule: Q04DX003 (ip), vehicle: saline); 155 % of control and 183 % of control and 190 % of control (dose: 0.34 mg/kg/injection, schedule: Q01DX009 (ip), vehicle: saline); 180 % of control (dose: 0.44 mg/kg/injection, schedule: Q04DX003 (ip), vehicle: saline); 162 % of control and 170 % of control and 195 % of control (dose: 0.51 mg/kg/injection, schedule: Q01DX009 (ip), vehicle: saline). For the same molecule, the T/C runs as follows: (dose: 0.66 mg/kg/injection, schedule: Q04DX003 (ip), vehicle: saline) 210 % of control; (dose: 1.0 mg/kg/injection, schedule: Q04DX003 (ip), vehicle: saline) 172 % of control; (dose: 1.5 mg/kg/injection, schedule: Q04DX003 (ip), vehicle: saline) 181 % of control; (dose: 4.65 mg/kg/injection, schedule: Q04DX003 (ip), vehicle: saline) 173 % of control; (dose: 11.0 micrograms/kg/injection, schedule: Q01DX009 (ip), vehicle: saline) 104 % of control; (dose: 22.0 micrograms/kg/injection, schedule: Q01DX009 (ip), vehicle: saline) 108 % of control. Where the note is “dose: 45.0 micrograms/kg/injection, schedule: Q01DX009 (ip), vehicle: saline”, the T/C is 104 % of control.

On to `N#CC(C#N)=Cc1ccc(C=C(C#N)C#N)cc1`, for which the T/C by setting is: under setting [1], 100 % of control; (dose: 25.0 mg/kg/injection, schedule: Q01DX009 (ip), vehicle: Klucel (hydroxypropylcellulose) (HPC)) 95 % of control; (dose: 50.0 mg/kg/injection, schedule: Q01DX009 (ip), vehicle: Klucel (hydroxypropylcellulose) (HPC)) 90 % of control; under setting [2], 100 % of control; under setting [3], 104 % of control; (dose: 400.0 mg/kg/injection, schedule: Q04DX003 (ip), vehicle: Klucel (hydroxypropylcellulose) (HPC)) 121 % of control.

Consider `C=C1C(=O)O[C@H]2[C@H]1[C@H](OC(=O)/C(C)=C\C)CC(=C)[C@@H]1[C@H](O)[C@H]3O[C@@]3(C)[C@@]12O`, for which the T/C (dose: 5.0 mg/kg/injection, schedule: Q01DX010 (ip), vehicle: carboxymethylcellulose (CMC)) was 104 % of control; the T/C (dose: 10.0 mg/kg/injection, schedule: Q01DX010 (ip), vehicle: carboxymethylcellulose (CMC)) was 104 % of control; the T/C (dose: 20.0 mg/kg/injection, schedule: Q01DX010 (ip), vehicle: carboxymethylcellulose (CMC)) was 113 % of control.

In the case of `Cc1cc(=O)c2cc(N)ccc2[nH]1`, the T/C by setting is: (dose: 25.0 mg/kg/injection, schedule: Q01DX009 (ip), vehicle: water) 110 % of control; (dose: 50.0 mg/kg/injection, schedule: Q01DX009 (ip), vehicle: water) 94 % of control; (dose: 50.0 mg/kg/injection, schedule: Q04DX003 (ip), vehicle: water) 102 % of control; (dose: 100.0 mg/kg/injection, schedule: Q01DX009 (ip), vehicle: water) 91 % of control; (dose: 100.0 mg/kg/injection, schedule: Q04DX003 (ip), vehicle: water) 106 % of control; (dose: 200.0 mg/kg/injection, schedule: Q01DX009 (ip), vehicle: water) 119 % of control. Moreover, the T/C is, setting by setting: (dose: 200.0 mg/kg/injection, schedule: Q04DX003 (ip), vehicle: water) 113 % of control; (dose: 400.0 mg/kg/injection, schedule: Q01DX009 (ip), vehicle: water) 92 % of control; (dose: 400.0 mg/kg/injection, schedule: Q04DX003 (ip), vehicle: water) 103 % of control.

Turning to `NC(=O)C1=NNc2ccccc2C(=O)N1c1ccccc1`, the T/C was 108 % of control (dose: 100.0 mg/kg/injection, schedule: Q04DX003 (ip), vehicle: saline with Tween-80); 113 % of control (dose: 200.0 mg/kg/injection, schedule: Q04DX003 (ip), vehicle: saline with Tween-80); 103 % of control (dose: 400.0 mg/kg/injection, schedule: Q04DX003 (ip), vehicle: saline with Tween-80).

Turning to `NP(=O)(N1CC1)N1CC1`, the T/C was 100 % of control (dose: 6.25 mg/kg/injection, schedule: Q04DX003 (ip), vehicle: saline) and 230 % of control under setting [4].

In the case of `Cc1cccc(Br)[n+]1[O-]`, the T/C is 90 % of control under setting [5]; 95 % of control under setting [4]; 100 % of control (dose: 50.0 mg/kg/injection, schedule: Q01DX001 (ip), vehicle: saline); 95 % of control (dose: 100.0 mg/kg/injection, schedule: Q01DX009 (ip), vehicle: saline); 95 % of control under setting [6]; 100 % of control (dose: 200.0 mg/kg/injection, schedule: Q01DX001 (ip), vehicle: saline).

In the case of `CC(=O)Nc1ccc2c(c1)Cc1cc(NC=O)ccc1-2`, the T/C runs as follows: (dose: 0.75 mg/kg/injection, schedule: Q01DX009 (ip), vehicle: Klucel (hydroxypropylcellulose) (HPC)) 89 % of control; (dose: 3.0 mg/kg/injection, schedule: Q01DX009 (ip), vehicle: Klucel (hydroxypropylcellulose) (HPC)) 92 % of control; under setting [1], 96 % of control; (dose: 100.0 mg/kg/injection, schedule: Q01DX009 (ip), vehicle: Klucel (hydroxypropylcellulose) (HPC)) 91 % of control; under setting [2], 87 % of control.

Take `NC(CO)C(=O)NC(CCC(=O)O)C(=O)NC(CO)C(=O)NC(CCC(=O)O)C(=O)NC(Cc1ccc(N(CCCl)CCCl)cc1)C(=O)O` (centres undefined) (H-SESE[ξPhe(4-N(CH2CH2Cl)2)]-OH; configuration not given here): the T/C was 100 % of control (dose: 5.0 mg/kg/injection, schedule: Q04DX003 (ip), vehicle: water); 98 % of control (dose: 10.0 mg/kg/injection, schedule: Q04DX003 (ip), vehicle: water); 97 % of control (dose: 20.0 mg/kg/injection, schedule: Q04DX003 (ip), vehicle: water); 100 % of control (dose: 40.0 mg/kg/injection, schedule: Q04DX003 (ip), vehicle: water).

On to `S=C(NNC(=S)Nc1ccc(Cl)cc1)NNc1ccccc1`, for which the T/C (dose: 25.0 mg/kg/injection, schedule: Q01DX009 (ip), vehicle: other) is 100 % of control; the T/C (dose: 50.0 mg/kg/injection, schedule: Q01DX009 (ip), vehicle: other) is 100 % of control; the T/C (dose: 50.0 mg/kg/injection, schedule: Q04DX003 (ip), vehicle: Klucel (hydroxypropylcellulose) (HPC)) is 104 % of control; the T/C (dose: 100.0 mg/kg/injection, schedule: Q01DX001 (ip), vehicle: Klucel (hydroxypropylcellulose) (HPC)) was 100 % of control; the T/C (dose: 100.0 mg/kg/injection, schedule: Q01DX009 (ip), vehicle: other) is 115 % of control; the T/C under setting [2] was 100 % of control. Besides, the T/C is 110 % of control (dose: 150.0 mg/kg/injection, schedule: Q01DX009 (ip), vehicle: Klucel (hydroxypropylcellulose) (HPC)); 90 % of control (dose: 200.0 mg/kg/injection, schedule: Q01DX001 (ip), vehicle: Klucel (hydroxypropylcellulose) (HPC)); 100 % of control under setting [3]; 110 % of control (dose: 220.0 mg/kg/injection, schedule: Q01DX009 (ip), vehicle: Klucel (hydroxypropylcellulose) (HPC)); 110 % of control (dose: 225.0 mg/kg/injection, schedule: Q01DX009 (ip), vehicle: Klucel (hydroxypropylcellulose) (HPC)); 110 % of control (dose: 335.0 mg/kg/injection, schedule: Q01DX009 (ip), vehicle: Klucel (hydroxypropylcellulose) (HPC)). Moreover, where the note is “dose: 400.0 mg/kg/injection, schedule: Q01DX001 (ip), vehicle: Klucel (hydroxypropylcellulose) (HPC)”, the T/C is 104 % of control.

On to `C/C(=N\[N+](C)(C)C)c1cccc(C)n1`, for which the T/C runs as follows: under setting [5], 100 % of control; under setting [4], 108 % of control; (dose: 33.0 mg/kg/injection, schedule: Q04DX003 (ip), vehicle: saline with Tween-80) 100 % of control; (dose: 33.0 mg/kg/injection, schedule: Q04DX003 (ip), vehicle: saline) 104 % of control; (dose: 50.0 mg/kg/injection, schedule: Q01DX009 (ip), vehicle: saline) 95 % of control; (dose: 50.0 mg/kg/injection, schedule: Q04DX003 (ip), vehicle: saline with Tween-80) 100 % of control. Besides, the T/C is, setting by setting: (dose: 50.0 mg/kg/injection, schedule: Q04DX003 (ip), vehicle: saline) 95 % of control; (dose: 75.0 mg/kg/injection, schedule: Q04DX003 (ip), vehicle: saline with Tween-80) 100 % of control; (dose: 75.0 mg/kg/injection, schedule: Q04DX003 (ip), vehicle: saline) 100 % of control; under setting [6], 108 % of control.
